Measurements reported in US20240182526A1, “COMPOSITIONS AND METHODS FOR MODULTING INFLAMMATORY AND DEGENERATIVE DISORDER” (University of Southern California, priority 2021, published 2024).
“Also recorded” adds a separate entry of the source.

What was measured:
[1] = test system: cleaved ACAN and COL2 neoepitopes; test: Neoepitope assay on pig articular cartilage explants stimulated with OSM; format: cell-based; conditions: 72 hours, normalized to wet weight
Protocol: Neoepitope analysis. WT and F814 mouse articular cartilage explants were treated with or without OSM (10 ng/mL). Pig articular cartilage explants were stimulated with or without OSM (10 ng/mL) and treated with or without peptide QQpYF (100 μg/mL or 300 μg/mL). For R805 treatment, pig articular cartilage explants were stimulated with or without OSM (10 ng/mL) and treated with or without R805 (0.01, 0.1, 1 or 10 μM). The explants were then digested for 2 hr at 37° C. with 0.01 units chondroitinase ABC (Sigma Aldrich, St. Louis, MO). Samples were then dialyzed with ultrapure water for 24 hr at 4° C., freeze dried, dissolved in RIPA Lysis and Extraction Buffer (Pierce, IL) containing protease inhibitors (Pierce) followed by sonication. Proteins were separated and analyzed by Western blot using primary antibodies against aggrecan (cat #NB100-74350, Novus Biologicals,) and collagen II neoepitopes (cat #50-1035, Ibex). Wet weight of explants was used as loading control.

[2] = molecular target: T1, heterodimerization of gp130 with IL-6 family of cytokines' alpha receptors (Homo sapiens, UniProt P40189); test: Receptor-competition assay (co-IP of gp130 FLAG with alpha receptors); format: cell-based; conditions: articular chondrocytes transfected with gp130 FLAG, different doses, 4 and 24 hours
T1 construct: A plasmid encoding full-length gp130 (WTgp130; InVivoGen) was used to create the 5 mutants; expressed in transfected cells
Protocol: IP Western, SDS-PAGE and Western blot analysis. For transfections of gp130 wild type (WT) (InVivoGen) and gp130 mutant plasmids (Thermo Scientific), cells were plated 24 h prior to transfection to produce monolayers that were 60% confluent and these were transfected by using Turbo DNAfectin 3000 (cat #G3000, Lambda Biotech) according to the manufacturer's protocol. 72h after transfection, cells were maintained in DMEM (10% FBS, 1% PSA) and were either left untreated or were stimulated with IL-6 (10 ng/mL) and/or OSM (10 ng/mL) for 24 h before cell harvest and protein extraction. For immunoprecipitation assays, cell lysates were incubated with Protein G Agarose (cat #20398, Pierce) and anti-Flag antibody (cat #2368, Cell Signaling) at 4° C. overnight. The immune complexes were sedimented, washed and separated by SDS-PAGE (see below) and further analyzed by Western blot using p-SRC (pY416-SRC) (cat #1246F, Novus Biologicals) or NEMO (cat #18474-1-AP, Proteintech) antibodies and normalized to gp130 (cat #bs-1459R, Bioss) or total SRC (cat #2123, Cell Signaling). For R805 treatment, the immune complexes were sedimented, washed and separated by SDS-PAGE and further analyzed by Western blot using OSMR (cat #ab85575, Abcam), LIFR (Santa cat #515337, Cruz Biotechnology) or p-SRC (pY416-SRC) (Novus Biologicals, cat #1246F). […]

[3] = test system: rat medial meniscal tear model; test: Rat medial meniscal tear model of osteoarthritis; format: in vivo; conditions: 6 weeks post-surgery
Protocol: Immunohistochemistry. Histological staining for was performed on wild type (WT) mice, F814 mice and all mice that underwent destabilization of the medial meniscus (DMM). Six weeks after surgery, mice were sacrificed and joints were fixed in 10% formalin, decalcified in 10% EDTA and embedded in paraffin. For rat model, 6 weeks after partial medial meniscectomy (PMM), rats were sacrificed and joints were fixed in 10% formalin, decalcified in 10% EDTA and embedded in paraffin. A total of three 8 μm thick sections were made at a 200 μm interval by coronal sectioning. For canine model, 4 and 16 weeks after medial meniscal release (MMR), dogs were sacrificed and joints were fixed in 10% formalin, decalcified in 10% EDTA and embedded in paraffin. No animals were excluded from analysis. A microtome (Leica) was used to cut 5-μm sections for joints. H&E staining was performed to assess morphology. Safranin O/Fast Green staining, immunohistochemistry for proteolytic enzymes and Osteoarthritis Research Society International (OARSI) scoring was performed as described (41, 42). For OARSI scoring, observers performing the analysis were blinded as whether the slides were from treated or control animals. The stained samples were visually observed using LSCM (Zeiss LSM710, Carl Zeiss, Germany).
Rat model of osteoarthritis. All experiments were conducted ethically. […]

T1 sequence (P40189 23-918, one chain of several): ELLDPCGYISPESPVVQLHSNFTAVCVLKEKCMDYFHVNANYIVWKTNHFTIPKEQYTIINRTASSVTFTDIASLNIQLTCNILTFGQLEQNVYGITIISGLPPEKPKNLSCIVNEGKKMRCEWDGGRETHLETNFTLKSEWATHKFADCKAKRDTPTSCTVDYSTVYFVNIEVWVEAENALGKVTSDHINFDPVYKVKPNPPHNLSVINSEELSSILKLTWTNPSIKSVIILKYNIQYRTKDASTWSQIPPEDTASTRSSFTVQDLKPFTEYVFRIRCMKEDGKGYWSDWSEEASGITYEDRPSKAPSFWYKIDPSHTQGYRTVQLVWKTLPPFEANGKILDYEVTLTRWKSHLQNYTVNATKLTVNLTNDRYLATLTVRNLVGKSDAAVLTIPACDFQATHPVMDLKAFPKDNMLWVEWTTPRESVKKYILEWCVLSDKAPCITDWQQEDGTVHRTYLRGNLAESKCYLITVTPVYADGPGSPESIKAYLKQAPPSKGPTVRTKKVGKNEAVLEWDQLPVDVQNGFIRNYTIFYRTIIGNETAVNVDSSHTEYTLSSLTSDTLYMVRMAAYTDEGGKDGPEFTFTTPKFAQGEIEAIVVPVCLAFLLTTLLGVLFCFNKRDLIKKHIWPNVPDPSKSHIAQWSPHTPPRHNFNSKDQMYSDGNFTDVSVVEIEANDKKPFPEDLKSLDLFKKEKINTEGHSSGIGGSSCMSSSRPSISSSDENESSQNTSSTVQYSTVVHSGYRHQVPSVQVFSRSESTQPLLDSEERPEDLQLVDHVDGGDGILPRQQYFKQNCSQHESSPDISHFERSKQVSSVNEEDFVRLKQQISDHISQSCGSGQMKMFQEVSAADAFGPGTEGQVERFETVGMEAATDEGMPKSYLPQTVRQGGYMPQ

## Cc1ccc(-c2csc(NC(=O)c3ccccn3)n2)cc1 [Peptide R805]
[1]
  matrix degeneration: levels of cleaved ACAN and COL2 neoepitopes: able to decrease; also recorded: protective effect on OSM-induced cartilage degeneration in vitro
[2]
  IL-6 family-induced heterodimerization of gp130 with α-receptors: markedly suppressed; also recorded: inhibits heterodimerization of gp130 with IL-6 family of cytokines' alpha receptors
[3]; femoral condyle
  cartilage thickness and stiffness (indentation mapping): maintained thickness and reduced stiffness in rat cartilage
[3]; weekly intra-articular injection
  cartilage degeneration (Safranin O histology): dramatically reduces the appearance of OA in rat and canine models; also recorded: prominent protective effects; also recorded: reduces cartilage degeneration
